From patent US20020188026A1, “Methods of sterilizing with dipercarboxylic acids” (Lynntech, Inc., priority 2000, published 2002)
Several values for one entry are separate records, joined by “and”; a condition that tells them apart may be missing. Equal values may be shown once.

How the values were obtained:
Bacillus subtilis spores = assay: Sporicidal testing, spores heat fixed to glass slides; type: cell-based; settings: for Log10 post-disinfection count (cfu/coupon): pre-disinfection 6.69
Procedure: Additional spore testing experiments were done with diperglutaric acid. In this example, the diperglutaric acid was dissolved in a 90% water and 10% ethanol solution and used to kill Bacillus subtilis spores. […] Sporicidal capabilities of diperglutaric acid were tested at various concentrations. These procedures called for a 30-minute treatment of Bacillus subtilis spores heat fixed to glass slides. Glass slides were cut in half lengthwise. A suspension of spores, obtained from Steris Corporation of Mentor, Ohio (order #Na026) in 10% bovine serum albumin (as a simulated organic load) was prepared at a concentration of 1.2×10^8 spores per mL. 100 μL of this suspension was heat-fixed to each glass slide. These slides were immersed in the following dilutions of the diperglutaric acid: 2%, 1%, 0.3%, 0.1%, and 0.03%.
Control slides were treated in glutaric acid: 2% and 1% in a 10% ethanol/water solution. All treatment concentrations were tested in duplicate. The spore coupons were immersed in 30 ml of test solution for 30 minutes. Following the treatment, the slides were rinsed in sterile water to remove residual acid. Each slide was then placed in a sterile 15-ml test tube containing 2 ml of sterile water. These tubes were sonicated for one hour to resuspend all spores. The sonicated slides were removed from the test tubes. The remaining solutions were serially diluted, plated in duplicate on nutrient agar and incubated for 18-24 hours at 37° C.
The control values (pre-disinfection counts) were obtained from spore carriers immersed in sterile distilled water for 30 minutes prior to rinsing, recovery, and enumeration. The average log10 recovery from these controls was log106.69 per carrier. This compares favorably with the initial number of spores added, which was log107.08. The number of viable spores recovered was 40% of the number initially applied. […] Losses of 90% or less are generally considered acceptable in this type of experiment. […] A log reduction of less than log100.5cfu/carrier was achieved. Thus, the unreacted parent carboxylic acid has little effect on spores. […] Even at a concentration of 0.33%, the diperglutaric acid's effect on spores was similar to that of 2% glutaraldehyde.

Psuedomonas aeruginosa = assay: Zone of inhibition test; type: cell-based; settings: P. aeruginosa, 20 μL on 6 mm disc, duplicate experiments
Procedure: (§1) Zone of inhibition tests are qualitative screens for the inhibitory effect of the compound being tested. Clear zones created by a compound on a bacterial lawn indicates bacteriostatic ability and possible bactericidal capability and the size of the zone of inhibition is a semi-qualitative measure of the strength of the compound. The procedure involved creating lawns of bacteria by spreading 100 μL of broth culture evenly on nutrient agar plates. The bacteria were drawn from broth cultures that had recently reached maximum density. The organisms were Staphylococcus aureus, Psuedomonas aeruginosa, and Escherichia coli. Sterile, 6 mm, white paper discs were placed in the middle of each bacterial lawn. 20 μL of treatment were dispensed onto the surface of each disc. The treatments were: 1.0% and 0.033% diperglutaric acid, 1.0% glutaric acid in water. Each treatment was performed in duplicate for each organism. The plates were incubated at 37° C. for 18-24 hours. All zones were then measured in millimeters across the diameter of the zone of inhibition.

Escherichia coli = assay: Zone of inhibition test; type: cell-based; settings: E. coli, 20 μL on 6 mm disc, duplicate experiments
Procedure: as §1

Staphylococcus aureus = assay: Zone of inhibition test; type: cell-based; settings: S. aureus, 20 μL on 6 mm disc, duplicate experiments
Procedure: as §1

E. coli = assay: Biopsy punch enumeration; type: cell-based; settings: 1% treatment
Procedure: (§2) Biopsy punch enumeration is an extension of the zone of inhibition test, which involves enumerating organisms on the surface or within a removed core (punch). This test provides a quantitative analysis of the viable organisms remaining after treatment. This procedure was carried out exactly the same as the zone of inhibition testing. After incubation, however, the disc was removed from the plate and a 6-mm core was taken with a sterile, disposable biopsy punch precisely in the location where the disc had been removed. The same three organisms were used and the following treatments were sampled in duplicate: 1.0% diperglutaric acid and 1.0% glutaric acid in water. The core of each plate was aseptically placed in a microcentrifuge tube with 1 ml of sterile 0.85% saline solution and placed on a vortex for 5 minutes. These samples were diluted and plated in duplicate on nutrient agar and allowed to incubate at 37° C. for 18-24 hours for enumeration.

S. aureus = assay: Biopsy punch enumeration; type: cell-based; settings: 1% treatment
Procedure: as §2

P. aeruginosa = assay: Biopsy punch enumeration; type: cell-based; settings: 1% treatment
Procedure: as §2

[1] = Crude estimate of solubility in water; type: physicochemical; settings: crude experiment, estimated
Excerpt: A crude experiment was done to first estimate the solubility in water of diperglutaric acid (C5), dipersuberic acid (C8), and dipersebacic acid (C10) prepared in accordance with Example 1. It was estimated that the limit of solubility of these peracids in water was 10%, 0.8%, and 0.1% wt/v for diperglutaric, dipersuberic, and dipersebacic, respectively.

[2] = concentrated peracid solution; cited from earlier work
[3] = 2.0% freshly prepared glutaraldehyde preparation

For `O=CCCCC=O` [Glutaraldehyde, reference compound], the “Average log10 postdisinfection count (cfu/coupon)” value (Bacillus subtilis spores; [3]) was 3.10 cfu/coupon and the “Average log10 reduction (cfu/coupon)” value (Bacillus subtilis spores; [3]) was 3.05 cfu/coupon.

With `O=C(CCCC(=O)OO)OO` [Diperglutaric acid, diperglutaric acid] the “Diameter of Zones of Inhibition” value (Psuedomonas aeruginosa; 0.033%) was 10 mm and 11 mm, the “Diameter of Zones of Inhibition” value (Psuedomonas aeruginosa; 1% in water) was 12 mm, 12 mm and the “Diameter of Zones of Inhibition” value (Escherichia coli; 0.033%) was 10 mm, 10 mm. For the same compound, the “Diameter of Zones of Inhibition” value (Escherichia coli; 1% in water) was 12 mm and 13 mm, the “Diameter of Zones of Inhibition” value (Staphylococcus aureus; 0.033%) was 10 mm and 9 mm and the “Diameter of Zones of Inhibition” value (Staphylococcus aureus; 1% in water) was 13 mm, 13 mm. For the same compound, the “Log10 reduction (cfu/6 mm diameter sample)” value (E. coli) was 7.44 log10, the “Log10 reduction (cfu/6 mm diameter sample)” value (S. aureus) was 8.11 cfu/6 mm diameter sample and the “Log10 reduction (cfu/6 mm diameter sample)” value (P. aeruginosa) was 7.53 cfu/6 mm diameter sample. The “Average log10 postdisinfection count (cfu/coupon)” value (Bacillus subtilis spores; 0.033% in 10% EtOH, 30 minutes) was 4.99 cfu/coupon, the “Average log10 reduction (cfu/coupon)” value (Bacillus subtilis spores; 0.033% in 10% EtOH, 30 minutes) was 1.70 cfu/coupon and the “Average log10 postdisinfection count (cfu/coupon)” value (Bacillus subtilis spores; 0.1% in 10% EtOH, 30 minutes) was 4.72 cfu/coupon. The “Average log10 reduction (cfu/coupon)” value (Bacillus subtilis spores; 0.1% in 10% EtOH, 30 minutes) was 1.97 cfu/coupon, the “Average log10 postdisinfection count (cfu/coupon)” value (Bacillus subtilis spores; 0.33% in 10% EtOH, 30 minutes) was 3.57 cfu/coupon and the “Average log10 reduction (cfu/coupon)” value (Bacillus subtilis spores; 0.33% in 10% EtOH, 30 minutes) was 3.12 cfu/coupon. For the same compound, the “Log10 post-disinfection count (cfu/coupon)” value (Bacillus subtilis spores; 0.33% in 10% EtOH, 30 minutes) was 3.62 cfu/coupon and 3.52 cfu/coupon, the “viable spores recovered from carriers” value (Bacillus subtilis spores; 1% and 2% for 30 minutes) was “no viable spores were recovered” and the “Average log10 postdisinfection count (cfu/coupon)” value (Bacillus subtilis spores; 1.0% in 10% EtOH, 30 minutes) was under 1.0 cfu/coupon. For the same compound, the “Average log10 reduction (cfu/coupon)” value (Bacillus subtilis spores; 1.0% in 10% EtOH, 30 minutes) was 6.69 cfu/coupon, the “Average log10 postdisinfection count (cfu/coupon)” value (Bacillus subtilis spores; 2.0% in 10% EtOH, 30 minutes) was under 1.0 cfu/coupon and the “Average log10 reduction (cfu/coupon)” value (Bacillus subtilis spores; 2.0% in 10% EtOH, 30 minutes) was 6.69 cfu/coupon. The “limit of solubility in water” value [1] was 10 % wt/v.

With `O=C(O)CCCC(=O)O` [Glutaric acid, reference compound] the “Diameter of Zones of Inhibition” value (Psuedomonas aeruginosa; 1% in water) was “No zone”, the “Diameter of Zones of Inhibition” value (Escherichia coli; 1% in water) was “No zone” and the “Diameter of Zones of Inhibition” value (Staphylococcus aureus; 1% in water) was “No zone”. The “Log10 postdisinfection count (cfu/6 mm diameter sample)” value (E. coli; predisinfection 7.44) was 6.75 cfu/6 mm diameter sample, the “Log10 reduction (cfu/6 mm diameter sample)” value (S. aureus) was 0.63 cfu/6 mm diameter sample and the “Log10 postdisinfection count (cfu/6 mm diameter sample)” value (S. aureus; predisinfection 8.11) was 7.48 cfu/6 mm diameter sample. For the same compound, the “Log10 reduction (cfu/6 mm diameter sample)” value (P. aeruginosa) was 0.00 cfu/6 mm diameter sample, the “Log10 postdisinfection count (cfu/6 mm diameter sample)” value (P. aeruginosa; predisinfection 7.53) was 7.57 cfu/6 mm diameter sample and the “Average log10 postdisinfection count (cfu/coupon)” value (Bacillus subtilis spores; 1.0% in 10% EtOH, 30 minutes) was 6.23 cfu/coupon. For the same compound, the “Average log10 reduction (cfu/coupon)” value (Bacillus subtilis spores; 1.0% in 10% EtOH, 30 minutes) was 0.46 cfu/coupon, the “Log10 post-disinfection count (cfu/coupon)” value (Bacillus subtilis spores; 1.0% in 10% EtOH, 30 minutes) was 6.26 cfu/coupon and 6.19 cfu/coupon and the “Average log10 postdisinfection count (cfu/coupon)” value (Bacillus subtilis spores; 2.0% in 10% EtOH, 30 minutes) was 6.26 cfu/coupon. The “Average log10 reduction (cfu/coupon)” value (Bacillus subtilis spores; 2.0% in 10% EtOH, 30 minutes) was 0.43 cfu/coupon, the “Log10 post-disinfection count (cfu/coupon)” value (Bacillus subtilis spores; 2.0% in 10% EtOH, 30 minutes) was 6.27 cfu/coupon and 6.24 cfu/coupon and the “sporicidal effectiveness” value (Bacillus subtilis spores; concentrations of 1% and 2% for 30 minutes) was “not an effective sporicidal agent”.

For `O=C(CCCCC(=O)OO)OO` [diperadipic acid], the “solubility for peracid concentrate solution” value [2] is given as “not soluble enough to prepare an adequate peracid concentrate solution”.

In the case of `O=C(CCCCCCC(=O)OO)OO` [dipersuberic acid], the “limit of solubility in water” value [1] is reported as 0.8 % wt/v.

For `O=C(CCCCCCCCC(=O)OO)OO` [dipersebacic acid], the “limit of solubility in water” value [1] was 0.1 % wt/v.

In the case of `O=C(CCC(=O)OO)OO` [dipersuccinic acid, reference compound], the “stability of peracid concentrate” value [2] is listed as “did not form stable peracid concentrates”.
